# From US20230040415A1 (PureTech LYT 100, Inc., priority 2020, published 2023)
# Where two headings read alike, the source gives them in different places.
# Columns and labels:
# [1] = tested on: Primary Mouse Lung Fibroblasts; assay: TGF-β-induced insoluble collagen synthesis, 6-well plate format (Sircol); format: cell-based; conditions: Fibroblast, TGF-β 5 ng/ml, 72 hrs, p=0.026, read-out: inhibition of TGF-β-induced total collagen
# Method: One hundred thousand Primary Mouse Lung Fibroblasts were plated in 6-well plates and incubated in complete DMEM until they reached confluency. The incubation medium was removed and complete DMEM containing Prolin (10 μM) and Ascorbic acid (20 μg/ml) was added.
# Supernatant was removed, cells were washed with cold PBS, 1 ml Sircol reagent was added. The Sircol reagent contains the collagen binding dye Sirius red. The cells were scraped off with Sircol reagent and samples were shaken for 5 h at room temperature (RT), centrifuged at 10,000 rpm for 5 min, supernatant was removed, the pellet was washed in 0.5 M acetic acid to remove unbound dye, and recentrifuged at 10,000 rpm for 5 min, supernatant was removed and the final pellet was dissolved in 1 ml 0.5M NaOH and shaken at RT for 5 h. A sample of 100 μl of resultant solution was placed in 96-well. The color reaction was assessed by optical density at a wave length of 600 nm.
# [2] = human, in vivo
# Method: All Part 1 cohorts will be dosed every 12 hours with food for 5 days.
# During the treatment period (Day 1 through Day 5), subjects will be administered their assigned study medication BID, every 12 h±0.25 h (with approximately 240 mL of non-carbonated water), 30 minutes after the start of consumption of their standardised breakfast or dinner (12 h apart). A standardised lunch will be served >4 h post breakfast and >4 h prior to dinner. An evening snack will be served >3 h following evening study medication administration. No additional fluids will be allowed during the 1 h pre- and post-doses. On Day 6, subjects will replicate mealtimes as scheduled on Day 1-5. To ensure study drug dosing every 12 hours, here is an example of meal and dosing schedule in Part 1: • Breakfast: meal to be served 30 mins prior to AM dosing. Breakfast must be completed within 30 mins of start time. • Lunch: meal to be served at least 4 h post-AM study drug dose. • Dinner: meal to be served at least 11.5 h post-AM dose and served 30 minutes prior to PM study drug dose. • Evening snack: Snack to be served at least 15 h post-AM dose (at least 3 h post-PM dose).
# In Part 1, blood samples (4 mL each) for PK will be collected for Cohorts 1, 2, 3, 4, and 6 at specified times (hours) at each as follows: • Day 1 and Day 5: 0 (pre-dose), 0.5, 1, 1.5, 2, 2.5, 3, 3.5, 4, 6, 8, 12 (pre-dose), 13, 14, 15, 16, 18 h • Day 2, Day 3 and Day 4: 0 (pre-morning-dose) and 12 h (pre-evening-dose) • Day 6: 12, 18, 24 and 36 h post-last dose • Day 7: 48 h (post-last dose)
# Pharmacokinetics for Day 1 to 3 in Part 2 (fed state) will be compared to PK for Day 1 to Day 3 in Part 2 (fasted state). Plasma PK parameters (non-compartmental or compartmental analysis as appropriate) will include, but are not limited to: • Following single dose: Tmax, tlag, Cmax, AUC0-4, AUC0-last, AUC0-inf, lambda z, % AUCext, CL/F, Vz/F, Cmax/D, AUC0-last/D, AUC0-inf/D and MRT (D is dose) • After repeated doses: Ctrough, Ctrough/D • Following repeated doses on last day: Tmax, Cmax, Cavg, tlag, t1/2, AUC0-4, AUC0-last, AUC0-inf, lambda z, % AUCext, CLss/F, Vzss/F, MRT, PTF, Rac(AUC), Rac(Cmax), Cmax/D, AUClast/D, AUC0-inf/D and Rac (accumulation ratio) Part 3 (Patients with Secondary Lymphoedema Post-Axillary/Post-Sentinel Node Dissection)
# NASH mice = assay: NASH mouse model (streptozotocin + high fat diet), liver histology; format: in vivo; conditions: n = 8
# Excerpt: Non-alcoholic steatohepatitis (NASH) is characterized by lobular inflammation, hepatocyte ballooning and degeneration progressing to liver fibrosis. […] In addition, nine non-NASH mice were fed with a normal diet and monitored.
# [3] = tested on: Primary Mouse Lung Fibroblasts; assay: TGF-β-induced soluble collagen ELISA; format: cell-based; conditions: Fibroblast
# Method: (§1) Approximately 5,000 primary mouse lung fibroblasts were plated in complete DMEM in 96 well plates and incubated for 3 days at which time the cultures achieved confluency. After cells reached to confluency, medium was removed and fresh DMEM supplemented with ascorbic acid (20 μg/ml) and prolin (10 μM) was added. […] One hour later, TGF-β (5 ng/ml) was added to the appropriate cultures at a final concentration. After 72 hours, 200 μl samples of the supernatant were placed onto an ELISA plate and incubated overnight. After blocking with %1 BSA for 2 h, plates were incubated with either an anti-collagen type I antibody or an anti-fibronectin antibody.
# (§2) The plates were washed after 1 hour and incubated with secondary horseradish peroxidase-conjugated antibodies (anti-goat for the collagen antibody, anti-rabbit for the fibronectin antibody). After a series of washing steps the color reagent TMB (3,3′,5,5′-Tetramethylbenzidine) was added and 15 minutes later the reactions were terminated with equal volumes of 2 N H2SO4. The levels of soluble collagen and fibronectin were determined by evaluating absorbance at 450 nm.
# L929 cells [4] = assay: TGF-induced collagen synthesis in L929 cells, 6-wells (SIRCOL); format: cell-based; conditions: 500 μM
# Method: 100,000 L929 cells were plated in complete DMEN and incubated until confluency for 3 days. Medium was removed and complete DMEM containing Prolin (20 μg/ml) and ascorbic acid (10 μM) was added. […] Cells were further incubated for 72 hrs. Supernatant was removed, cells were washed with cold PBS, 1 ml SIRCOL reagent was added onto the cells and cells were scraped off, samples were shaken for 5 h. at RT, centrifuged at 10.000 rpm for 5 min, supernatant was removed, pellet was dissolved in 0.5 M acetic acid to remove unbound dye, and re-centrifuged at 10.000 rpm for 5 min, supernatant was removed and final pelet was dissolved in 1 ml 0.5M NaOH, shaken at RT for 5 h, 100 μl of resulted solution was placed in 96-well and O.D was determined at 600.
# [5] = tested on: Primary Mouse Lung Fibroblasts; assay: TGF-β-induced soluble fibronectin ELISA; format: cell-based; conditions: Fibroblast
# Method: as §1, §2
# [6] = Food effect study Part 2, single 500 mg dose fed vs fasted; format: in vivo, human; conditions: human, plasma, oral, 500 mg, LYT-100 @500 mg single dose, analyte = label
# Method: The comparison will be based on Day 1, Day 2 and Day 3 PK plasma samples after the first dose of study drug on Day 1 under fast and fed conditions of Part 2.
# Subjects will be admitted to the CRU on Day −1 and will fast overnight for at least 10 h.
# L929 cells [7] = assay: TGF-induced collagen synthesis in L929 cells, 96-well plate format (SIRCOL); format: cell-based; conditions: 500 μM
# Method: Five thousand L929 cells were plated in complete DMEN and incubated until confluency for 3 days. Medium was removed and complete DMEM containing Prolin (20 μg/ml) and ascorbic acid (10 μM) was added. […] Cells were further incubated for 72 hrs. Supernatant was removed, 0.5% gluteraldehyde was added for 30 min at RT, removed, washed 3× with dd water, 0.5 M acetic acid was added for 30 min at RT, removed, washed with water, air dried and 100 μl SIRCOL dye was added for 5 h at RT. Dye was removed, plate was washed extensively under running water, air dried and 200 μl of 0.5 M NaOH was added, plates were shaken at RT for 1 h, and OD was determined at 600 nm.
# [8] = MAD study adverse event profile; format: in vivo
# Excerpt: All subjects in Part 1 and Part 2 will be monitored for safety (including assessment of chemistry, haematology and urinalysis parameters, electrocardiograms [ECGs], vital signs and adverse events [AEs]) and samples will be collected for assessment of PK at predefined time points pre and post-dose as delineated in the Schedule of Events.
# L929 cells [9] = assay: TGF-induced soluble fibronectin synthesis in L929 cells (ELISA); format: cell-based; conditions: 500 μM, in the absence and presence of TGF-β-induction
# Excerpt: Fibronectin is another important component of fibrotic lungs as it is induced by TGF-β and functions both as a structural component of extra cellular matrix as well as well as a ligand for integrin receptors. Just like soluble collagen, binding of fibronectin to integrin receptors induces the proliferation of fibroblast and epithelial cells of the lungs.
# L929 cells [10] = assay: Survival of L929 cells (MTT); format: cell-based; conditions: 500 μM, 72 hrs
# Method: Five thousand L929 cells were plated in completed DMEN and incubated until confluency for 3 days. Medium was removed and complete DMEM containing Prolin (20 μg/ml) and ascorbic acid (10 uM) was added. […], of medium was removed, […], MTT solution was added for 4 hrs, then 100 μl of DMSO was added, and absorbance of developed dark pink color was determined at […].
compound,measurement,setting,value
"[2H]C([2H])([2H])c1ccc(=O)n(-c2ccccc2)c1 [LYT-100, 5-(methyl-d3)-1-phenylpyridin-2-(1H)-one]",inhibition at 500 µM,[1],15%
same,dose dependence of AUC96-108,[2],linear dose proportionality
same,NAS (mean ± SD),NASH mice; 30 mg/kg twice daily oral,4.0 ± 1.1
same,"Hepatocyte ballooning score 2 (Many cells/prominent ballooning), number of animals",NASH mice,8
same,"Lobular Inflammation score 1 (<2 foci/200x), number of animals",NASH mice,5
same,"Lobular Inflammation score 2 (2-4 foci/200x), number of animals",NASH mice,3
same,"Steatosis score 0 (<5%), number of animals",NASH mice,4
same,"Steatosis score 1 (5-33%), number of animals",NASH mice,3
same,"Steatosis score 2 (>33%-66%), number of animals",NASH mice,1
same,inhibition at 500 µM,"[3]; TGF-β 5 ng/ml, 72 hours, p=0.0001, read-out: inhibition of TGF-β-dependent increase of soluble collagen",36%
same,inhibition at 500 µM,"[3]; no TGF-β, p=0.0115, read-out: inhibition of background level of soluble collagen",23%
same,collagen synthesis in the absence of added TGF-β,L929 cells [4],significantly inhibits
same,TGF-induced collagen synthesis,"L929 cells [4]; TGF-β 5 ng/ml, 72 hrs",inhibits
same,inhibition at 500 µM,"[5]; TGF-β 5 ng/ml, 72 hours, p=0.0185, read-out: inhibition of TGF-β-dependent induction of soluble fibronectin",11%
same,inhibition at 500 µM,"[5]; no TGF-β, p=0.03, read-out: inhibition of background level of soluble fibronectin",10%
same,AUC,"[6]; read-out: AUC, Fasted",60900 ng·h/mL
same,AUC,"[6]; read-out: AUC, Fed",49500 ng·h/mL
same,Cmax,"[6]; read-out: Cmax, Fasted",10300 ng/mL
same,Cmax,"[6]; read-out: Cmax, Fed",7900 ng/mL
same,total collagen level in the absence of TGF-β induction,L929 cells [7],significantly inhibited or reduced
same,TGF-β-induced total collagen levels,"L929 cells [7]; TGF-β 5 ng/ml, 72 hrs",significantly inhibited or reduced
same,tolerability of 750 mg dosing,[8]; 750 mg BID,surprisingly well tolerated
same,most common adverse events,[8]; blinded MAD data,headache and mild abdominal discomfort
same,severity of adverse events,"[8]; blinded MAD data, 100-1000 mg BID, 5 days",mild and transient
same,soluble fibronectin levels,L929 cells [9],significantly reduced
same,survival of L929 cells,L929 cells [10],does not affect survival
